Legend:
[1] = Body weight change as index of toxicity in MV-4-11 tumor-bearing nude mice; type: in vivo
[2] = system: 11 sarcoma cell lines listed in Table 1; assay: Cell proliferation assay (CellTiter-Glo) in 11 sarcoma cell lines, correlated with SLFN11 mRNA expression; type: cell-based; details: 100 micro mol/L Compound A, 3 days of exposure, Pearson's correlation (P<0.05)
Procedure: Cell proliferation assay was performed in accordance with conventional methods, available in Hasako. S., et al. Mol Cancer Ther 17, 1648-1658 (2018). Briefly, cells were plated and incubated for 1 day, followed by 3 days of exposure to the compound. After exposure to Compound A, viable cells were detected by using the CellTiter-Glo luminescent cell viability assay (Promega). The experiment was performed in triplicates.
Correlation analysis of SLFN11 expression and Compound A cytotoxicity was performed using Pearson's correlation coefficient (P<0.05) in JMP 13 software. The gene expression data of cell lines were available online CCLE (http://www.broadinstitute.org/ccle/home). Compound A cytotoxicity data from 11 cell lines in Table 1 were used for correlation analysis (data for correlation was not shown).
The correlation between SLFN11 mRNA expression and the relative growth percent of cells at 100 micro mol/L treatment by Compound A was analyzed in 11 sarcoma cell lines listed in Table 1.

[3] = system: A673 cells; assay: Cell proliferation assay in A673 cells treated with siRNA against SLFN11; type: cell-based; details: A673 Ewing sarcoma cells, siSLFN11 vs siControl, 3 days of exposure
Procedure: (§1) A673 cells, NCI-H460 cells and CFPAC-1 cells were transfected with 1 nM siRNAs for 24 h using Lipofectaminet®RNAiMAX Reagent (Thermo Fisher Scientific Inc.) and then re-seeded onto a 96-well plate for cell proliferation assay and caspase induction assay and onto dishes for immunoblotting analysis. siRNAs were obtained from Thermo Fisher Scientific Inc. as follows: Silencer® Select Negative Control #1 siRNA (#4390843 used as siControl), SLFN11 Silencer® Select Pre-designed siRNA (#s40703 used as siSLFN11-1, #s40704 as siSLFN11-2, and #s40702 as siSLFN11-3).
(§2) Cell proliferation assay was performed in accordance with conventional methods, available in Hasako, et al., ibid. Briefly, cells treated with siRNAs for 24 h were plated onto 96 well plate and incubated for 24 h, followed by 3 days of exposure to the compound A. After compound exposure, viable cells were detected by using the CellTiter-Glo luminescent cell viability assay (Promega).

[4] = system: A673 cells; assay: Caspase-Glo 3/7 caspase induction assay in A673 cells treated with siRNA against SLFN11; type: cell-based; details: 10 micro mol/L, 24 h; A673 cells transfected with siRNA against SLFN11
Procedure: as §1
(§3) Caspase induction assay was performed in accordance with conventional methods, available in Hasako., et al., ibid. Briefly, the cells with siRNAs for 24 h were seeded onto 96 well plate, incubated for 24 h, and then treated with Compound A for 24 h. Caspase induction was detected by using the Caspase-Glo 3/7 assay (Promega).

[5] = system: NCI-H460 cells; assay: Cell proliferation assay in NCI-H460 cells treated with siRNA against SLFN11; type: cell-based; details: non-small cell lung cancer cell line NCI-H460, siSLFN11 vs siControl, 3 days of exposure
Procedure: as §1, §2

[6] = system: CFPAC-1 cells; assay: Cell proliferation assay in CFPAC-1 cells treated with siRNA against SLFN11; type: cell-based; details: pancreatic cancer cell line CFPAC-1, siSLFN11 vs siControl, 3 days of exposure
Procedure: as §1, §2

[7] = system: NCI-H460 cells; assay: Caspase-Glo 3/7 caspase induction assay in NCI-H460 cells treated with siRNA against SLFN11; type: cell-based; details: 10 micro mol/L, 24 h; NCI-H460 cells transfected with siRNA against SLFN11
Procedure: as §1, §3

[8] = system: CFPAC-1 cells; assay: Caspase-Glo 3/7 caspase induction assay in CFPAC-1 cells treated with siRNA against SLFN11; type: cell-based; details: 10 micro mol/L, 24 h; CFPAC-1 cells transfected with siRNA against SLFN11
Procedure: as §1, §3

With Cc1ccc(F)c([C@@H](C)[C@H](NS(=O)(=O)c2ccc(Cl)cc2C(N)=O)c2n[nH]c(=O)o2)c1C [Compound A, 5-chloro-2-(N-((1S,2R)-2-(6-fluoro-2,3-dimethylphenyl)-1-(5-oxo-4,5-dihydro-1,3,4-oxadiazol-2-yl)propyl)sulfamoyl)benzamide] as the compound, how does the “recovery indicated by BW change %, Group 3QW1-1 compared with Group C-1” value ([1]; 3QW (consecutive) 233 mg/kg/day vs continuous 100 mg/kg/day, total dosage 1400 mg/kg, Day 15, t-test p<0.05) read?
Its value is “better with a statistically significant difference relative to Group C-1”.

And the “recovery indicated by BW change %, Group 3QW1-2 compared with Group C-2” value ([1]; 3QW (consecutive) 350 mg/kg/day vs continuous 150 mg/kg/day, total dosage 2100 mg/kg, Day 15, t-test p<0.05)?
The value was “better with a statistically significant difference relative to Group C-2”.

And the “recovery indicated by BW change %, Group 3QW2-1 compared with Group C-1” value ([1]; 3QW (every other day) 233 mg/kg/day vs continuous 100 mg/kg/day, total dosage 1400 mg/kg, Day 15, t-test p<0.05)?
The value was “better with a statistically significant difference relative to Group C-1”.

What about the “recovery indicated by BW change %, Group 3QW2-2 compared with Group C-2” value ([1]; 3QW (every other day) 350 mg/kg/day vs continuous 150 mg/kg/day, total dosage 2100 mg/kg, Day 15, t-test p<0.05) of the same compound?
The value was “better with a statistically significant difference relative to Group C-2”.

And the “body weight loss (BW change %)” value ([1]; 3QW Dosing Group 1, 233 or 350 mg/kg/day orally Days 1-3 and 8-10)?
The value was “body weight loss was observed”.

What about the “body weight loss (BW change %)” value ([1]; 3QW Dosing Group 2, 233 or 350 mg/kg/day orally Days 1, 3, 5, 8, 10 and 12) of the same compound?
Its value is “body weight loss was observed”.

And the “BW change %, Group 5QW2-1 compared with Group C-1” value ([1]; 5QW (2 on/1 off/3 on/1 off) 140 mg/kg/day vs continuous 100 mg/kg/day, total dosage 1400 mg/kg, Day 15)?
Its value is “a statistically significant difference could not be observed”.

And the “recovery indicated by BW change %, Group 5QW2-2 compared with Group C-2” value ([1]; 5QW (2 on/1 off/3 on/1 off) 210 mg/kg/day vs continuous 150 mg/kg/day, total dosage 2100 mg/kg, Day 15, t-test p<0.05)?
The value was “better with a statistically significant difference relative to Group C-2”.

And the “recovery indicated by BW change %, Group 5QW1-1 compared with Group C-1” value ([1]; 5QW (consecutive) 140 mg/kg/day vs continuous 100 mg/kg/day, total dosage 1400 mg/kg, Day 15, t-test p<0.05)?
The value was “better with a statistically significant difference relative to Group C-1”.

And the “recovery indicated by BW change %, Group 5QW1-2 compared with Group C-2” value ([1]; 5QW (consecutive) 210 mg/kg/day vs continuous 150 mg/kg/day, total dosage 2100 mg/kg, Day 15, t-test p<0.05)?
Its value is “better with a statistically significant difference relative to Group C-2”.

What about the “body weight loss (BW change %)” value ([1]; 5QW Dosing Group 1, 140 or 210 mg/kg/day orally Days 1-5 and 8-12) of the same compound?
Its value is “body weight loss was observed”.

And the “body weight loss (BW change %)” value ([1]; 5QW Dosing Group 2, 140 or 210 mg/kg/day orally Days 1-2, 4-6, 8-9 and 11-13)?
Its value is “body weight loss was observed”.

What about the “body weight loss (BW change %)” value ([1]; Continuous Dosing Group, 100 or 150 mg/kg/day orally once daily Day 1 to Day 14) of the same compound?
Its value is “body weight loss was observed”.

What about the “BW change %, Group QOD-1 compared with Group C-1” value ([1]; QOD 200 mg/kg/day vs continuous 100 mg/kg/day, total dosage 1400 mg/kg) of the same compound?
The value was “a statistically significant difference could not be observed”.

What about the “recovery indicated by BW change %, Group QOD-2 compared with Group C-2” value ([1]; QOD 300 mg/kg/day vs continuous 150 mg/kg/day, total dosage 2100 mg/kg, Day 15, t-test p<0.05) of the same compound?
Its value is “better with a statistically significant difference compared with Group C-2”.

And the “body weight loss (BW change %)” value ([1]; QOD Dosing Group, 200 or 300 mg/kg/day orally every other day for two weeks)?
Its value is “body weight loss was observed”.

What about the “recovery indicated by BW change %, Group QW-1 compared with Group C-1” value ([1]; QW 700 mg/kg/day vs continuous 100 mg/kg/day, total dosage 1400 mg/kg, Day 15, t-test p<0.05) of the same compound?
Its value is “better with a statistically significant difference than Group C-1”.

What about the “recovery indicated by BW change %, Group QW-2 compared with Group C-2” value ([1]; QW 1050 mg/kg/day vs continuous 150 mg/kg/day, total dosage 2100 mg/kg, Day 15, t-test p<0.05) of the same compound?
Its value is “better with Group QW-2 having a statistically significant difference relative to Group C-2”.

And the “body weight loss (BW change %)” value ([1]; QW Dosing Group, 700 or 1050 mg/kg/day orally once per week for two weeks)?
The value was “body weight loss was observed”.

What about the “correlation between SLFN11 mRNA expression and relative cell growth (%)” value [2] of the same compound?
The value was “a significant correlation”.

What about the “effect of SLFN11 knockdown with siRNA on the cytotoxic effect” value (shortened to “effect of SLFN11 knockdown with siRNA”) [3] of the same compound?
The value was “SLFN11 knockdown significantly suppressed the cytotoxic effect”.

What about the “compound-induced caspase-3/7 activation after SLFN11 knockdown” value (shortened to “compound-induced caspase-3/7 activation”) [4] of the same compound?
The value was “suppression”.

What about the “effect of SLFN11 knockdown with siRNA” value [5] of the same compound?
The value was “SLFN11 knockdown significantly suppressed the cytotoxic effect”.

What about the “effect of SLFN11 knockdown with siRNA” value [6] of the same compound?
Its value is “SLFN11 knockdown significantly suppressed the cytotoxic effect”.

What about the “compound-induced caspase-3/7 activation” value [7] of the same compound?
Its value is “suppression”.

And the “compound-induced caspase-3/7 activation” value [8]?
Its value is “suppression”.

— US20230390251A1, “METHODS OF TREATING RIBONUCLEOTIDE REDUCTASE-RELATED DISEASES WITH A RIBONUCLEOTIDE REDUCTASE INHIBITOR” (TAIHO PHARMACEUTICAL CO., LTD., priority 2020, published 2023)
